# Reference: patent publication US20260027116A1, “Methods of Treating Chronic Graft-Versus-Host Disease Following Allogeneic Hematopoietic Stem Cell Transplantation” (Kadmon Corporation, LLC, priority 2022, published 2026)
# How the values were obtained:
# [1] = tested on: lung function; assay: Example 1: percent predicted FVC change from baseline; type: in vivo, human; conditions: mean (SD)
# Description: Change From Baseline in Percent Predicted Forced Vital Capacity (FVC) at Each Specified Time Points. FVC was the total amount of air (in liters) exhaled from the lungs during the lung function test measured by spirometer which assessed the change in lung function related to the disease status. Baseline value was defined as valid and last non-missing value obtained within 28 days prior to participant receiving first study medication. EOT visit was performed within 3 days after the participant's last dose of study drug. […] Analysis was performed on mITT population. Here, ‘number analyzed’=participants with available data for each specified category. Here, ‘0’ in the number analyzed field signifies that none of the participants were available for the analysis at the specified time points.
# [2] = tested on: cGVHD; assay: Example 2: corticosteroid and other immunosuppressant reduction; type: in vivo, human
# Description: All responses were assessed by the study site investigators.
compound,measurement,setting,value
"CC(C)NC(=O)COc1cccc(-c2nc(Nc3ccc4[nH]ncc4c3)c3ccccc3n2)c1 [Belumosudil, 2-{3-[4-(1H-indazol-5-ylamino)-2-quinazolinyl]phenoxy}-N-(propan-2-yl) acetamide]",Change From Baseline in Percent Predicted Forced Vital Capacity (FVC),"[1]; Cohort 2: 200 mg BID, Cycle 23, Day 1",−11.0 (2.8) percent predicted FVC
same,Change From Baseline in Percent Predicted Forced Vital Capacity (FVC),"[1]; Cohort 2: 200 mg BID, Cycle 24, Day 1",−13.0 (—) percent predicted FVC
same,Change From Baseline in Percent Predicted Forced Vital Capacity (FVC),"[1]; Cohort 2: 200 mg BID, Cycle 25, Day 1",−10.5 (3.5) percent predicted FVC
same,Change From Baseline in Percent Predicted Forced Vital Capacity (FVC),"[1]; Cohort 2: 200 mg BID, Cycle 27, Day 1",−18.0 (12.7) percent predicted FVC
same,Change From Baseline in Percent Predicted Forced Vital Capacity (FVC),"[1]; Cohort 2: 200 mg BID, Cycle 29, Day 1",−11.0 (—) percent predicted FVC
same,Change From Baseline in Percent Predicted Forced Vital Capacity (FVC),"[1]; Cohort 2: 200 mg BID, Cycle 31, Day 1",−15.5 (7.8) percent predicted FVC
same,Change From Baseline in Percent Predicted Forced Vital Capacity (FVC),"[1]; Cohort 2: 200 mg BID, Cycle 33, Day 1",−17.5 (7.8) percent predicted FVC
same,Change From Baseline in Percent Predicted Forced Vital Capacity (FVC),"[1]; Cohort 2: 200 mg BID, Cycle 35, Day 1",−15.0 (11.3) percent predicted FVC
same,Change From Baseline in Percent Predicted Forced Vital Capacity (FVC),"[1]; Cohort 2: 200 mg BID, EOT",−8.4 (9.2) percent predicted FVC
same,Change From Baseline in Percent Predicted Forced Vital Capacity (FVC),"[1]; Cohort 3: 400 mg QD, Cycle 2, Day 1",−5.5 (9.9) percent predicted FVC
same,Change From Baseline in Percent Predicted Forced Vital Capacity (FVC),"[1]; Cohort 3: 400 mg QD, Cycle 3, Day 1",−3.0 (6.7) percent predicted FVC
same,Change From Baseline in Percent Predicted Forced Vital Capacity (FVC),"[1]; Cohort 3: 400 mg QD, Cycle 4, Day 1",−0.2 (8.6) percent predicted FVC
same,Change From Baseline in Percent Predicted Forced Vital Capacity (FVC),"[1]; Cohort 3: 400 mg QD, Cycle 5, Day 1",1.6 (6.3) percent predicted FVC
same,Change From Baseline in Percent Predicted Forced Vital Capacity (FVC),"[1]; Cohort 3: 400 mg QD, Cycle 6, Day 1",0.8 (9.5) percent predicted FVC
same,Change From Baseline in Percent Predicted Forced Vital Capacity (FVC),"[1]; Cohort 3: 400 mg QD, Cycle 7, Day 1",2.3 (9.7) percent predicted FVC
same,Change From Baseline in Percent Predicted Forced Vital Capacity (FVC),"[1]; Cohort 3: 400 mg QD, Cycle 8, Day 1",0.4 (8.9) percent predicted FVC
same,Change From Baseline in Percent Predicted Forced Vital Capacity (FVC),"[1]; Cohort 3: 400 mg QD, Cycle 9, Day 1",−0.8 (9.5) percent predicted FVC
same,Change From Baseline in Percent Predicted Forced Vital Capacity (FVC),"[1]; Cohort 3: 400 mg QD, Cycle 10, Day 1",4.7 (4.9) percent predicted FVC
same,Change From Baseline in Percent Predicted Forced Vital Capacity (FVC),"[1]; Cohort 3: 400 mg QD, Cycle 11, Day 1",−4.4 (12.0) percent predicted FVC
same,Change From Baseline in Percent Predicted Forced Vital Capacity (FVC),"[1]; Cohort 3: 400 mg QD, Cycle 12, Day 1",0.7 (5.8) percent predicted FVC
same,Change From Baseline in Percent Predicted Forced Vital Capacity (FVC),"[1]; Cohort 3: 400 mg QD, Cycle 13, Day 1",−4.9 (9.8) percent predicted FVC
same,Change From Baseline in Percent Predicted Forced Vital Capacity (FVC),"[1]; Cohort 3: 400 mg QD, Cycle 14, Day 1",−2.7 (7.1) percent predicted FVC
same,Change From Baseline in Percent Predicted Forced Vital Capacity (FVC),"[1]; Cohort 3: 400 mg QD, Cycle 15, Day 1",−4.8 (11.5) percent predicted FVC
same,Change From Baseline in Percent Predicted Forced Vital Capacity (FVC),"[1]; Cohort 3: 400 mg QD, Cycle 16, Day 1",−6.5 (6.5) percent predicted FVC
same,Change From Baseline in Percent Predicted Forced Vital Capacity (FVC),"[1]; Cohort 3: 400 mg QD, Cycle 17, Day 1",−5.6 (12.8) percent predicted FVC
same,Change From Baseline in Percent Predicted Forced Vital Capacity (FVC),"[1]; Cohort 3: 400 mg QD, Cycle 18, Day 1",4.0 (4.0) percent predicted FVC
same,Change From Baseline in Percent Predicted Forced Vital Capacity (FVC),"[1]; Cohort 3: 400 mg QD, Cycle 19, Day 1",0.8 (5.1) percent predicted FVC
same,Change From Baseline in Percent Predicted Forced Vital Capacity (FVC),"[1]; Cohort 3: 400 mg QD, Cycle 20, Day 1",−2.0 (5.6) percent predicted FVC
same,Change From Baseline in Percent Predicted Forced Vital Capacity (FVC),"[1]; Cohort 3: 400 mg QD, Cycle 21, Day 1",−6.6 (17.0) percent predicted FVC
same,Change From Baseline in Percent Predicted Forced Vital Capacity (FVC),"[1]; Cohort 3: 400 mg QD, Cycle 22, Day 1",−6.0 (8.5) percent predicted FVC
same,Change From Baseline in Percent Predicted Forced Vital Capacity (FVC),"[1]; Cohort 3: 400 mg QD, Cycle 23, Day 1",−1.8 (10.6) percent predicted FVC
same,Change From Baseline in Percent Predicted Forced Vital Capacity (FVC),"[1]; Cohort 3: 400 mg QD, Cycle 24, Day 1",−15.0 (—) percent predicted FVC
same,Change From Baseline in Percent Predicted Forced Vital Capacity (FVC),"[1]; Cohort 3: 400 mg QD, Cycle 25, Day 1",−1.3 (11.7) percent predicted FVC
same,Change From Baseline in Percent Predicted Forced Vital Capacity (FVC),"[1]; Cohort 3: 400 mg QD, Cycle 27, Day 1",−4.0 (21.2) percent predicted FVC
same,Change From Baseline in Percent Predicted Forced Vital Capacity (FVC),"[1]; Cohort 3: 400 mg QD, Cycle 29, Day 1",6.0 (1.4) percent predicted FVC
same,Change From Baseline in Percent Predicted Forced Vital Capacity (FVC),"[1]; Cohort 3: 400 mg QD, Cycle 31, Day 1",−4.0 (—) percent predicted FVC
same,Change From Baseline in Percent Predicted Forced Vital Capacity (FVC),"[1]; Cohort 3: 400 mg QD, Cycle 35, Day 1",−3.0 (—) percent predicted FVC
same,Change From Baseline in Percent Predicted Forced Vital Capacity (FVC),"[1]; Cohort 3: 400 mg QD, Cycle 36, Day 1",2.0 (—) percent predicted FVC
same,Change From Baseline in Percent Predicted Forced Vital Capacity (FVC),"[1]; Cohort 3: 400 mg QD, Cycle 49, Day 1",2.0 (—) percent predicted FVC
same,Change From Baseline in Percent Predicted Forced Vital Capacity (FVC),"[1]; Cohort 3: 400 mg QD, EOT",−7.8 (14.7) percent predicted FVC
same,"Mean change in CS dose from baseline, Nonresponder",[2]; 200 mg daily,−22%
same,"Mean change in CS dose from baseline, Overall",[2]; 200 mg daily,−43%
same,"Mean change in CS dose from baseline, Responder",[2]; 200 mg daily,−49%
same,CS discontinuation,[2]; 200 mg daily (n = 66),13 (20) n (%)
same,Median CS reduction from baseline to greatest reduction,[2]; 200 mg daily (n = 66),38%
same,Proportion with CS reduction,[2]; 200 mg daily (n = 66),42 (64) n (%)
same,"Mean change in CS dose from baseline, Nonresponder",[2]; 200 mg twice daily,−10%
same,"Mean change in CS dose from baseline, Overall",[2]; 200 mg twice daily,−48%
same,"Mean change in CS dose from baseline, Responder",[2]; 200 mg twice daily,−58%
same,CS discontinuation,[2]; 200 mg twice daily (n = 66),15 (23) n (%)
same,Median CS reduction from baseline to greatest reduction,[2]; 200 mg twice daily (n = 66),50%
same,Proportion with CS reduction,[2]; 200 mg twice daily (n = 66),44 (67) n (%)
same,subjects who discontinued calcineurin inhibitor (CNI) therapy,[2]; Example 2,22%
same,subjects who discontinued mycophenolate mofetil,[2]; Example 2,21%
same,subjects who discontinued sirolimus,[2]; Example 2,20%
same,subjects who reduced corticosteroid dose,[2]; Example 2,65%
same,mean corticosteroid dose reduction,"[2]; Example 2, mITT",45%
same,mean corticosteroid dose reduction,"[2]; Example 2, responders",54%
same,"Mean change in CS dose from baseline, Nonresponder",[2]; Total,−16%
same,"Mean change in CS dose from baseline, Overall",[2]; Total,−45%
same,"Mean change in CS dose from baseline, Responder",[2]; Total,−54%
same,Median CS reduction from baseline to greatest reduction,[2]; Total (N = 132),50%
same,Proportion with CS reduction,[2]; Total (N = 132),86 (65) n (%)
